Measured values published in patent publication US20230256047A1, “METHODS AND COMPOSITIONS FOR THE TREATMENT OF MUSCULAR DYSTROPHY” (STEALTH BIOTHERAPEUTICS INC., priority 2020, published 2023).
Square brackets hold non-standard residues; d marks the D form. Peptide text beside a SMILES is read from it. Dmt = Cc1cc(O)cc(C)c1C[C@H](N)C(=O)O; Orn = NCCC[C@H](N)C(=O)O

Key:
Format in all cases: in vivo
D2-mdx mice = test: Echocardiography in D2-mdx mouse model; settings: treated vs untreated D2-mdx mice; daily IP 1.0 or 5.0 mg/kg for 10-15 weeks
Description: Animals and Care: The DBA2 (a.k.a. D2-mdx) congenic strain of mdx mouse will be used for these studies. DBA/2J mice will be used as the wildtype control group. Animals will be obtained from appropriate sources (e.g. Jackson Labs). Animals will be housed at a density of up to five males or five females per cage under specific pathogen-free conditions in rooms with a 12-h light/12-h dark cycle at a temperature of 18-23° C. and 40-60% humidity. All experiments involving mice in this study will be performed in accordance with all applicable laws and regulations.
Echocardiography: In order to assess the cardiac function of mice in vivo, echocardiography will be performed on sedated mice. Mice will first be anesthetized (e.g. with 5% isoflurane mixed with 100% oxygen at 1.0 1/min flow) and then maintained under anesthesia (e.g. with 1.5% isoflurane/oxygen flow. Ophthalmic ointment can be placed on the eyes of the animals to prevent drying of the cornea while the mouse was anesthetized and tested. After anesthetic induction, the animals will be placed on a thermostatically controlled heated platform, where anesthesia can be maintained by delivery through a close-fitting facemask. A heating lamp can also be used to keep the heart rate and body temperature constant at physiological status during echocardiography.
During the examination, the animal’s heart rate will be monitored through the use of an electrocardiograph. The mouse’s heart rate and body temperature will be monitored continuously during the scanning. Echocardiography will be performed using an appropriate apparatus (e.g. Vevo770 ultrasound machine (VisualSonics, Toronto, Canada). The 2-D (B-mode), M-mode and Doppler images will be acquired from a modified parasternal long axis view, parasternal short axis view, suprasternal notch view and apical three-chamber view. The heart rate (BPM), fractional shortening, EF, stroke volume and cardiac output will be obtained for cardiac function assessment using measurements from the modified parasternal short axis view in the M-mode. Qualitative and quantitative measurements will be recorded using offline workstation software, and post-imaging analysis will be performed.
Study Design • 1. N=40-60 mice total assigned to following groups • a. Wildtype control - untreated, n=10-15 • b. mdx, vehicle treated, n=10-15 • c. mdx, daily IP elamipretide 1.0 mg/kg, n=10-15 • d. mdx, daily IP elamipretide 5.0 mg/kg, n=10-15 • 2. Dosing to begin at 4-6 weeks of age and continue for 10-15 weeks • a. Weekly retroorbital eye bleeds will be taken to provide serum for biomarker analysis • 3. In-life endpoints • a. Weekly body weight will be taken • b. Measurements of weekly voluntary wheel running will be determined • i. Total distance (m) • ii. Normalized distance (m/kg) • c. Echocardiogram (at least at week 18 & end of study but possibly more often, including possibly bi-monthly). The following parameters will be accessed. • i. Ejection fraction (%) • ii. Fractional shortening (%) • iii. Stroke volume (uL) • iv. Cardiac output (mL) • v. Heart rate (bpm) • 4. Endpoints post-necropsy • a. Serum analysis for creatine kinase • b. Histology of heart and inflammation and fibrosis

[1] = system: Subjects suspected of having or diagnosed as having DMD or BMD and taking corticosteroids and/or Eteplirsen, Golodirsen or Casimersen; test: Treatment of cardiomyopathy in human subjects with DMD or BMD taking corticosteroids and/or Eteplirsen, Golodirsen or Casimersen; settings: for signs or symptoms of cardiomyopathy associated with DMD or BMD: human subjects taking corticosteroids and/or Eteplirsen, Golodirsen or Casimersen, daily subcutaneous 0.5-5.0 mg/kg/day or weekly intravenous 0.05-1.0 mg/kg/hr. for up to 4 hours; for effect of combination with corticosteroids and/or Eteplirsen, Golodirsen or Casimersen on signs or symptoms of cardiomyopathy: human subjects, compared to peptide alone, or corticosteroids and/or Eteplirsen, Golodirsen or Casimersen alone
Description: Subjects suspected of having or diagnosed as having DMD or BMD and taking corticosteroids and/or Eteplirsen (Exondys 51®), Golodirsen (Vyondys 53™)or Casimersen (Amondys 45™) are separately, sequentially, or simultaneously subcutaneously administered a daily dose of H-D-Arg-2′6′-Dmt-Lys-Phe-NH2 or H-D-Arg-2′6′-Dmt-Lys-Phe-OH (e.g. with 0.5-5.0 mg/kg/day) or a weekly intravenous administration of H-D-Arg-2′6′-Dmt-Lys-Phe-NH2 or H-D-Arg-2′6′-Dmt-Lys-Phe-OH (e.g. with 0.05-1.0 mg/kg/hr. for up to 4 hours). Subjects will be regularly evaluated (e.g., weekly, bi-weekly, monthly, etc.) for the presence and/or severity of signs and symptoms of cardiomyopathy associated with DMD or BMD including, but not limited to, impaired left ventricular dynamics, e.g., reduced ejection fraction, reduced shortening fraction, reduced stroke volume, and/or reduced cardiac output, and elevated levels serum biomarkers associated with myocardial fibrosis, such as, e.g., elevated levels of carboxy terminal peptide of procollagen type I (PICP) and/or amino terminal propeptide of procollagen type III. Treatments are maintained at least until such a time as one or more signs or symptoms of cardiomyopathy associated with DMD or BMD are ameliorated or eliminated. The study may be conducted in a randomized withdrawal trial (e.g. randomized, double-blind, placebo-controlled withdrawal trial) to assess the impact of the peptide on the subjects followed by the impact of its withdrawal relative to a control group still receiving the peptide.

DMD KO rabbits = test: Body weight and survival in DMD KO rabbit model; settings: treated DMD KO rabbits vs untreated control group of DMD KO rabbits; 0.5 to 5 mg/kg once daily i.p., approximately 3-5 months
Description: Rabbits: The DMD KO rabbits used in this study will be obtained from the Laboratory Animal Center of Jilin University or prepared as described in Sui et al., Disease Models & Mechanisms 11 (2018). […] New Zealand rabbits (WT) will be used as controls.
Body Weight & Survival Curve: The body weight of age- and sex-matched WT and DMD KO rabbits will be measured biweekly. All data will be expressed as the mean±s.e.m., and a minimum of three individual animals of each genotype will be used in all experiments.
Study Design: At approximately 3-4 weeks of age, rabbits will be administered peptide (or a mixture of peptides) dissolved in sterile saline in dose(s) ranging from 0.5 to 5 mg/kg, once daily via intraperitoneal (i.p.) injection. The control group will be given placebo (sterile saline). Rabbits will be treated daily with peptide (or a mixture of peptides) or saline vehicle control, with treatment lasting approximately 3-5 months. For example, the peptide used could be a peptide of Formula A-1 (i.e. H-D-Arg-2′6′-Dmt-Lys-Phe-NH2). Echocardiograms will be collected monthly until animals are approximately 4-6 months of age or end of life. At the time of death, tissues will be harvested and variables described above will be collected.

[2] = system: Subjects suspected of having or diagnosed as having DMD or BMD; test: Treatment of cardiomyopathy in human subjects diagnosed with muscular dystrophy; settings: daily subcutaneous 0.5-5.0 mg/kg/day or weekly intravenous 0.05-1.0 mg/kg/hr. for up to 4 hours
Description: Subjects suspected of having or diagnosed as having DMD or BMD receive daily subcutaneous administration of H-D-Arg-2′6′-Dmt-Lys-Phe-NH2 or H-D-Arg-2′6′-Dmt-Lys-Phe-OH (e.g. with 0.5-5.0 mg/kg/day). Alternatively, subjects suspected of having or diagnosed as having DMD or BMD receive weekly intravenous administration of H-D-Arg-2′6′-Dmt-Lys-Phe-NH2 or H-D-Arg-2′6′-Dmt-Lys-Phe-OH (e.g. with 0.05-1.0 mg/kg/hr. for up to 4 hours). In some cases, the subjects could be co-administered a drug known to increase or correct the production of dystrophin in the subject, such as a phosphorodiamidate morpholino oligomer (PMO) such as Eteplirsen (Exondys 51®), Golodirsen (Vyondys 53™) or Casimersen (Amondys 45™) or a PPMO. Subjects will be regularly evaluated (e.g., weekly, bi-weekly, monthly, etc.) for the presence and/or severity of signs and symptoms of cardiomyopathy associated with DMD or BMD including, but not limited to, impaired left ventricular dynamics, e.g., reduced ejection fraction, reduced shortening fraction, reduced stroke volume, and/or reduced cardiac output, and elevated levels serum biomarkers associated with myocardial fibrosis, such as, e.g., elevated levels of carboxy terminal peptide of procollagen type I (PICP) and/or amino terminal propeptide of procollagen type III. […]

Structure (SMILES): Cc1cc(O)cc(C)c1C[C@H](NC(=O)[C@H](N)CCCNC(=N)N)C(=O)N[C@@H](CCCCN)C(=O)N[C@@H](Cc1ccccc1)C(N)=O [Compound A-1, H-D-Arg-2′6′-Dmt-Lys-Phe-NH2] (H-[dR][Dmt]KF-NH2)
- cardiac output (D2-mdx mice): higher
- fractional shortening (FS) (D2-mdx mice): higher
- signs or symptoms of cardiomyopathy associated with DMD or BMD [1]: delayed or reduced severity or elimination
- effect of combination with corticosteroids and/or Eteplirsen, Golodirsen or Casimersen on signs or symptoms of cardiomyopathy [1]: synergistic effects
- lifespan (DMD KO rabbits): statistically significant increase in lifespan
- signs or symptoms of cardiomyopathy associated with DMD or BMD [2]: reduced severity or elimination

Structure (SMILES): Cc1cc(O)cc(C)c1C[C@H](NC(=O)[C@H](N)CCCNC(=N)N)C(=O)N[C@@H](CCCCN)C(=O)N[C@@H](Cc1ccccc1)C(=O)O [Compound A-2, H-D-Arg-2′6′-Dmt-Lys-Phe-OH] (H-[dR][Dmt]KF-OH)
- cardiac output (D2-mdx mice): higher
- fractional shortening (FS) (D2-mdx mice): higher
- signs or symptoms of cardiomyopathy associated with DMD or BMD [1]: delayed or reduced severity or elimination
- effect of combination with corticosteroids and/or Eteplirsen, Golodirsen or Casimersen on signs or symptoms of cardiomyopathy [1]: synergistic effects
- lifespan (DMD KO rabbits): statistically significant increase in lifespan
- signs or symptoms of cardiomyopathy associated with DMD or BMD [2]: reduced severity or elimination

Structure (SMILES): Cc1cc(O)cc(C)c1C[C@H](NC(=O)[C@H](N)CCCNC(=N)N)C(=O)N[C@@H](CCCNC(=N)N)C(=O)N[C@@H](Cc1ccccc1)C(N)=O [Compound A-3] (H-[dR][Dmt]RF-NH2)
- cardiac output (D2-mdx mice): higher
- fractional shortening (FS) (D2-mdx mice): higher
- lifespan (DMD KO rabbits): statistically significant increase in lifespan

Structure (SMILES): Cc1cc(O)cc(C)c1C[C@H](NC(=O)[C@H](N)CCCNC(=N)N)C(=O)N[C@@H](CCCNC(=N)N)C(=O)N[C@@H](Cc1ccccc1)C(=O)O [Compound A-4] (H-[dR][Dmt]RF-OH)
- cardiac output (D2-mdx mice): higher
- fractional shortening (FS) (D2-mdx mice): higher
- lifespan (DMD KO rabbits): statistically significant increase in lifespan

Structure (SMILES): Cc1cc(O)cc(C)c1C[C@H](NC(=O)[C@H](N)CCCNC(=N)N)C(=O)N[C@@H](CCCN)C(=O)N[C@@H](Cc1ccccc1)C(N)=O [Compound A-5] (H-[dR][Dmt][Orn]F-NH2)
- cardiac output (D2-mdx mice): higher
- fractional shortening (FS) (D2-mdx mice): higher
- lifespan (DMD KO rabbits): statistically significant increase in lifespan

Structure (SMILES): Cc1cc(O)cc(C)c1C[C@H](NC(=O)[C@H](N)CCCNC(=N)N)C(=O)N[C@@H](CCCN)C(=O)N[C@@H](Cc1ccccc1)C(=O)O [Compound A-6] (H-[dR][Dmt][Orn]F-OH)
- cardiac output (D2-mdx mice): higher
- fractional shortening (FS) (D2-mdx mice): higher
- lifespan (DMD KO rabbits): statistically significant increase in lifespan

Structure (SMILES): N=C(N)NCCC[C@@H](N)C(=O)N[C@@H](Cc1ccc(O)cc1)C(=O)N[C@@H](CCCCN)C(=O)N[C@@H](Cc1ccccc1)C(N)=O [Compound A-7] (H-[dR]YKF-NH2)
- cardiac output (D2-mdx mice): higher
- fractional shortening (FS) (D2-mdx mice): higher
- lifespan (DMD KO rabbits): statistically significant increase in lifespan

Structure (SMILES): N=C(N)NCCC[C@@H](N)C(=O)N[C@@H](Cc1ccc(O)cc1)C(=O)N[C@@H](CCCCN)C(=O)N[C@@H](Cc1ccccc1)C(=O)O [Compound A-8] (H-[dR]YKF-OH)
- cardiac output (D2-mdx mice): higher
- fractional shortening (FS) (D2-mdx mice): higher
- lifespan (DMD KO rabbits): statistically significant increase in lifespan
